The values that follow come from US9321764B2, “Dihydro-pyrrolopyridinone inhibitors” (AbbVie Inc., priority 2013, dated 2016).

SMILES strings stand for the structures.

For one assay, the target named is T1, BRD4 (BDI_K57-E168) (Homo sapiens, UniProt O60885).
T1 construct: BD1: amino acids K57-E168; made in house
Put plainly: TR-FRET bromodomain binding assay, first bromodomain of BRD4. The settings on record: His-tagged BD1, 100 nM Alexa647 probe; TR-FRET protocol A-E given per row. The protocol:
(§1) A time-resolved fluorescence resonance energy transfer (TR-FRET) assay was used to determine the affinities of compounds of the Examples listed in Table 1 for each bromodomain of BRD4. His-tagged first (BD1: amino acids K57-E168) and second (BD2: amino acids E352-E168) bromodomains of BRD4 were expressed and purified. An Alexa647-labeled BET-inhibitor was used as the fluorescent probe in the assay.
(§2) Compound dilution series were prepared in DMSO via an approximately 3-fold serial dilution from one of the following:
Assay method A: 250 μM-4.2 nM
Assay method B: 0.47 mM to 7.8 nM
Assay method C: 500 μM-8.5 nM
(§3) Assay method D: 2.5 mM-800 nM
Assay method E: 0.047 mM to 0.78 nM or 5-fold serial dilution from Assay method D
For Assay methods A, C, and D: Compounds were then diluted 6:100 in assay buffer (20 mM Sodium Phosphate, pH 6.0, 50 mM NaCl, 1 mM Ethylenediaminetetraacetic acid, 0.01% Triton X-100, 1 mM DL-Dithiothreitol) to yield 3× working solutions. Six microliters (μL) of the working solution was then transferred to white, low-volume assay plates (Costar #3673). A 1.5× assay mixture containing His-tagged bromodomain, Europium-conjugated anti-His antibody (Invitrogen PV5596) and the Alexa-647-conjugated probe molecule was also prepared. Twelve μL of this solution were added to the assay plate to reach a final volume of 18 μL.
For Assay methods B and E: Compound dilutions were added directly into white, low-volume assay plates (Perkin Elmer Proxiplate 384 Plus #6008280) using a Labcyte Echo in conjunction with Labcyte Access and Thermo Multidrop CombinL robotics. Compounds were then suspended in eight microliters (μL) of assay buffer (20 mM Sodium Phosphate, pH 6.0, 50 mM NaCl, 1 mM Ethylenediaminetetraacetic acid disodium salt dihydrate, 0.01% Triton X-100, 1 mM DL-Dithiothreitol) containing His-tagged bromodomain, Europium-conjugated anti-His antibody (Invitrogen PV5596) and Alexa-647-conjugated probe.
The final concentration of 1× assay mixture for assay methods A, B, C, D, and E contains 2% DMSO, 8 nM His-tagged bromodomain, 1 nM Europium-conjugated anti-His-tag antibody and 100 nM or 30 nM probe (for BDI or BDII, respectively) and compound concentration in the range of: 5 μM-85 pM for method A, 9.19 μM 150 pM for method B, 10 μM-169 pM for method C, 50 μM-16 nM for method D, and 0.92 μM-15 pM for method E.
After a one-hour equilibration at room temperature, TR-FRET ratios were determined using an Envision multilabel plate reader (Ex 340, Em 495/520).
TR-FRET data were normalized to the means of 24 no-compound controls (“high”) and 8 controls containing 1 μM un-labeled probe (“low”). Percent inhibition was plotted as a function of compound concentration and the data were fit with the 4 parameter logistic equation to obtain IC50s Inhibition constants (Ki) were calculated from the IC50s, probe Kd and probe concentration. Typical Z′ values were between 0.65 and 0.75. The minimum significant ratio was determined to evaluate assay reproducibility (Eastwood et al., (2006) J Biomol Screen, 11: 253-261). The MSR was determined to be 2.03 for BDI and 1.93 for BDII, and a moving MSR (last six run MSR overtime) for both BDI and BDII was typically <3.
Background: TR-FRET usually uses a lanthanide donor and a delayed reading to cut background.

The target in another assay is T2, BRD4 (BDII_E352-M457) (Homo sapiens, UniProt O60885).
T2 construct: proliferation; Protocol; made in house
The assay can be described thus: TR-FRET bromodomain binding assay, second bromodomain of BRD4. The following applies: His-tagged BD2, 30 nM Alexa647 probe; TR-FRET protocol A-E given per row. The protocol: as §1, §2, §3
For Assay methods A, C, and D: Compounds were then diluted 6:100 in assay buffer (20 mM Sodium Phosphate, pH 6.0, 50 mM NaCl, 1 mM Ethylenediaminetetraacetic acid, 0.01% Triton X-100, 1 mM DL-Dithiothreitol) to yield 3× working solutions. […] Twelve μL of this solution were added to the assay plate to reach a final volume of 18 μL.
TR-FRET data were normalized to the means of 24 no-compound controls (“high”) and 8 controls containing 1 μM un-labeled probe (“low”). Percent inhibition was plotted as a function of compound concentration and the data were fit with the 4 parameter logistic equation to obtain IC50s Inhibition constants (Ki) were calculated from the IC50s, probe Kd and probe concentration. Typical Z′ values were between 0.65 and 0.75.

One may read the Ki as the equilibrium dissociation constant of an inhibitor or competing ligand from its target. Low values mean a stronger hold on the target, high ones a looser hold on the target. In the case of `Cn1cc(-c2cc(NS(C)(=O)=O)ccc2Oc2ccc(F)cc2F)c2cc[nH]c(=O)c21` [Example 2, N-[4-(2,4-difluorophenoxy)-3-(1-methyl-7-oxo-6,7-dihydro-1H-pyrrolo[2,3-c]pyridin-3-yl)phenyl]methanesulfonamide], the inhibition constant (Ki) was 0.0062 µM on BRD4 (BDI_K57-E168) and 0.013 µM on BRD4 (BDII_E352-M457).
As for `CCS(=O)(=O)Nc1ccc(Oc2ccc(F)cc2F)c(-c2cn(C)c3c(=O)[nH]ccc23)c1` [Example 4, N-[4-(2,4-difluorophenoxy)-3-(1-methyl-7-oxo-6,7-dihydro-1H-pyrrolo[2,3-c]pyridin-3-yl)phenyl]ethanesulfonamide], the Ki is 0.0059 µM on BRD4 (BDI_K57-E168) and 0.0072 µM on BRD4 (BDII_E352-M457).
On to `Cn1cc(-c2cc(NS(C)(=O)=O)c(Oc3ccc(F)cc3F)cc2F)c2cc[nH]c(=O)c21` [Example 12, N-[2-(2,4-difluorophenoxy)-4-fluoro-5-(1-methyl-7-oxo-6,7-dihydro-1H-pyrrolo[2,3-c]pyridin-3-yl)phenyl]methanesulfonamide], for which the inhibition constant Ki on BRD4 (BDI_K57-E168) was determined as 0.684 µM; on BRD4 (BDII_E352-M457), 1.17 µM.
For the compound `CCS(=O)(=O)Nc1ccc(Oc2ccc(F)cc2)c(-c2cn(C)c3c(=O)[nH]ccc23)c1` [Example 15, N-[4-(4-fluorophenoxy)-3-(1-methyl-7-oxo-6,7-dihydro-1H-pyrrolo[2,3-c]pyridin-3-yl)phenyl]ethanesulfonamide], the values for the Ki on BRD4 (BDI_K57-E168) and on BRD4 (BDII_E352-M457) were 0.0033 µM and 0.012 µM, respectively.
The matching figures for `Cn1cc(-c2cc(S(C)(=O)=O)ccc2Oc2ccccc2)c2cc[nH]c(=O)c21` [Example 18, 1-methyl-3-[5-(methylsulfonyl)-2-phenoxyphenyl]-1,6-dihydro-7H-pyrrolo[2,3-c]pyridin-7-one]: 0.012 µM and 0.021 µM.
With `COc1ccc(S(C)(=O)=O)cc1-c1cn(C)c2c(=O)[nH]ccc12` [Example 21, 3-[2-methoxy-5-(methylsulfonyl)phenyl]-1-methyl-1,6-dihydro-7H-pyrrolo[2,3-c]pyridin-7-one], the Ki at BRD4 (BDI_K57-E168) is 0.438 µM; on BRD4 (BDII_E352-M457) it was 0.721 µM.
The matching figures for `Cn1cc(-c2cc(S(C)(=O)=O)ccc2OCCC2CCCC2)c2cc[nH]c(=O)c21` [Example 35, 3-[2-(2-cyclopentylethoxy)-5-(methylsulfonyl)phenyl]-1-methyl-1,6-dihydro-7H-pyrrolo[2,3-c]pyridin-7-one]: 0.042 µM and 0.111 µM.
In the case of `Cn1cc(-c2cc(S(C)(=O)=O)ccc2OCCC2CCCCC2)c2cc[nH]c(=O)c21` [Example 36, 3-[2-(2-cyclohexylethoxy)-5-(methylsulfonyl)phenyl]-1-methyl-1,6-dihydro-7H-pyrrolo[2,3-c]pyridin-7-one], the Ki was determined as 0.146 µM at BRD4 (BDI_K57-E168) and 0.515 µM on BRD4 (BDII_E352-M457).
The matching figures for `Cn1cc(-c2cc(S(C)(=O)=O)ccc2OCCc2ccccc2)c2cc[nH]c(=O)c21` [Example 37, 1-methyl-3-[5-(methylsulfonyl)-2-(2-phenylethoxy)phenyl]-1,6-dihydro-7H-pyrrolo[2,3-c]pyridin-7-one]: 0.052 µM and 0.099 µM.
For `Cn1cc(-c2cc(S(C)(=O)=O)ccc2OC2Cc3ccccc3C2)c2cc[nH]c(=O)c21` [Example 38, 3-[2-(2,3-dihydro-1H-inden-2-yloxy)-5-(methylsulfonyl)phenyl]-1-methyl-1,6-dihydro-7H-pyrrolo[2,3-c]pyridin-7-one], the Ki is 0.09 µM on BRD4 (BDI_K57-E168) and 0.435 µM at BRD4 (BDII_E352-M457).
For `Cn1cc(-c2cc(S(C)(=O)=O)ccc2OCCc2cccs2)c2cc[nH]c(=O)c21` [Example 39, 1-methyl-3-{5-(methylsulfonyl)-2-[2-(thiophen-2-yl)ethoxy]phenyl}-1,6-dihydro-7H-pyrrolo[2,3-c]pyridin-7-one] the same measures were 0.063 µM and 0.051 µM.
The matching figures for `Cn1ccc2c(-c3cc(S(C)(=O)=O)ccc3OCC3CC3(F)F)cn(C)c2c1=O` (stereo not drawn) [Example 43, 3-{2-[(2,2-difluorocyclopropyl)methoxy]-5-(methylsulfonyl)phenyl}-1,6-dimethyl-1,6-dihydro-7H-pyrrolo[2,3-c]pyridin-7-one]: 2.58 µM and 2.54 µM.
With `Cn1cc(-c2cc(S(C)(=O)=O)ccc2NCC2CCCCC2)c2cc[nH]c(=O)c21` [Example 47, 3-{2-[(cyclohexylmethyl)amino]-5-(methylsulfonyl)phenyl}-1-methyl-1,6-dihydro-7H-pyrrolo[2,3-c]pyridin-7-one], the results for the inhibition constant Ki on BRD4 (BDI_K57-E168) and on BRD4 (BDII_E352-M457) were 0.033 µM and 0.124 µM, respectively.
With `Cc1cccc(OCC2CC2)c1-c1cn(C)c2c(=O)[nH]ccc12` [Example 50, 3-[2-(cyclopropylmethoxy)-6-methylphenyl]-1-methyl-1,6-dihydro-7H-pyrrolo[2,3-c]pyridin-7-one], the results for the Ki on BRD4 (BDI_K57-E168) and at BRD4 (BDII_E352-M457) were 1.71 µM and above 4.44 µM, respectively.
The matching figures for `CCS(=O)(=O)c1cnc(Oc2ccc(F)cc2F)c(-c2cn(C)c3c(=O)[nH]ccc23)c1` [Example 59, 3-[2-(2,4-difluorophenoxy)-5-(ethylsulfonyl)pyridin-3-yl]-1-methyl-1,6-dihydro-7H-pyrrolo[2,3-c]pyridin-7-one]: 0.606 µM and 0.6 µM.
For `Cn1cc(-c2cc(S(C)(=O)=O)ccc2Oc2ccc(C(C)(C)C)cc2)c2cc[nH]c(=O)c21` [Example 62, 3-[2-(4-tert-butylphenoxy)-5-(methylsulfonyl)phenyl]-1-methyl-1,6-dihydro-7H-pyrrolo[2,3-c]pyridin-7-one] the same measures were 0.357 µM and 0.291 µM.
Regarding `Cn1cc(-c2cc(S(C)(=O)=O)ccc2OCCC23CC4CC(CC(C4)C2)C3)c2cc[nH]c(=O)c21` [Example 65], the Ki at BRD4 (BDI_K57-E168) came out at 0.416 µM; on BRD4 (BDII_E352-M457), 2.64 µM.
With `Cn1cc(-c2cc(S(C)(=O)=O)ccc2OCCCC2CCCC2)c2cc[nH]c(=O)c21` [Example 66, 3-[2-(3-cyclopentylpropoxy)-5-(methylsulfonyl)phenyl]-1-methyl-1,6-dihydro-7H-pyrrolo[2,3-c]pyridin-7-one], the results for the Ki at BRD4 (BDI_K57-E168) and at BRD4 (BDII_E352-M457) were 0.219 µM and 0.741 µM, respectively.
On to `Cn1cc(-c2cc(S(C)(=O)=O)ccc2NCC(F)(F)F)c2cc[nH]c(=O)c21` [Example 69, 1-methyl-3-{5-(methylsulfonyl)-2-[(2,2,2-trifluoroethyl)amino]phenyl}-1,6-dihydro-7H-pyrrolo[2,3-c]pyridin-7-one], for which the results for the inhibitory constant (Ki) at BRD4 (BDI_K57-E168) and on BRD4 (BDII_E352-M457) were 0.773 µM and 2.29 µM, respectively.
For `Cn1cc(-c2cc(S(C)(=O)=O)ccc2NCC(F)(F)C(F)(F)C(F)(F)F)c2cc[nH]c(=O)c21` [Example 70, 3-{2-[(2,2,3,3,4,4,4-heptafluorobutyl)amino]-5-(methylsulfonyl)phenyl}-1-methyl-1,6-dihydro-7H-pyrrolo[2,3-c]pyridin-7-one] the same measures were 0.613 µM and 1.66 µM.
As to `Cn1cc(-c2cc(S(C)(=O)=O)ccc2NCCC2CCCC2)c2cc[nH]c(=O)c21` [Example 72, 3-{2-[(2-cyclopentylethyl)amino]-5-(methylsulfonyl)phenyl}-1-methyl-1,6-dihydro-7H-pyrrolo[2,3-c]pyridin-7-one], the Ki on BRD4 (BDI_K57-E168) was 0.492 µM; on BRD4 (BDII_E352-M457), 0.967 µM.
